In patent US9000023B2, “Disubstituted phthalazine hedgehog pathway antagonists” (Eli Lilly and Company, priority 2009, dated 2015):
Structures can show the parent of a compound that is named as a salt.

Tests used:
Gli1 in Daoy cells = assay: Functional assay for measuring the inhibition of Gli1 in Daoy cells (bDNA assay); type: cell-based; settings: Homo sapiens; Daoy cells stimulated with Shh conditioned media, 24 hours with compound, Gli1 transcript by bDNA luminescence
Description: All ligands, solvents, and reagents employed in the following assay are readily available from commercial sources or can be readily prepared by one skilled in the art. Biological activity is determined using a functional assay in Daoy neuronal cancer cells and measures levels of Gli1 ribonucleic acid via a bDNA (branched deoxyribonucleic acid) assay system (Panomics, Inc., Fremont, Calif.). Gli was originally discovered in a Glioblastoma cell line and encodes a zinc finger protein that is activated by Shh signaling. The maximum response is obtained by inducing Gli1 transcription in the Daoy cells with conditioned medium (human embryonic kidney, HEK-293 cells stably expressing recombinant Shh) for 24 hours and then measuring the amount of stimulated Gli1 transcript. […] The bDNA assay system utilizes the technology of branched-chain DNA to allow amplification of a target ribonucleic acid (transcript). […] The addition of a chemilumigenic substrate during the amplification step allows for detection using luminescence. […] The cells are removed from the T225-flasks using trypsin ethylenediaminetetraacetic acid (EDTA), centrifuged, resuspended in media, and then counted. […] The signal is quantified by reading the plates on a Perkin Elmer Envision reader detecting luminescence. […]

CYP3A4 = CYP3A4 (Homo sapiens, UniProt P08684); assay: CYP3A4 Inhibition Assay (human liver microsomes, midazolam substrate); settings: pH 7.4, probe midazolam (5 μM; formation of 1-OH-midazolam)
Sequence of CYP3A4 (P08684 whole entry): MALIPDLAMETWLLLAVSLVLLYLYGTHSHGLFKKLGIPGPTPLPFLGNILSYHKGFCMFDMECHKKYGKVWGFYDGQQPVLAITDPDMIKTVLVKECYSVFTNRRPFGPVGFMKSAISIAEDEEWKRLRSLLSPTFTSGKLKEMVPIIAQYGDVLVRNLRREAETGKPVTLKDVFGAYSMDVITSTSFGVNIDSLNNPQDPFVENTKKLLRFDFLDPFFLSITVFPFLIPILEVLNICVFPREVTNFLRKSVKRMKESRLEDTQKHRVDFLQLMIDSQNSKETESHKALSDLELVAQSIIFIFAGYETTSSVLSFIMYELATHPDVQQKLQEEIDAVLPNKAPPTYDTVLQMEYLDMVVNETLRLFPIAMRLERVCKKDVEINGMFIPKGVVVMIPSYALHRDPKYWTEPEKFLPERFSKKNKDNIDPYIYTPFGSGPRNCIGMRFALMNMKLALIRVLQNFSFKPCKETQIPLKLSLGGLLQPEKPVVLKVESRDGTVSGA

CN(C(=O)c1ccc(F)cc1C(F)(F)F)C1CCN(c2nnc(-c3ccnn3C)c3ccccc23)CC1 [Example 1a, 4-Fluoro-N-methyl-N-(1-(4-(1-methyl-1H-pyrazol-5-yl)phthalazin-1-yl)piperidin-4-yl)-2-(trifluoromethyl)benzamide hydrochloride]
IC50 (Gli1 in Daoy cells): ~2.4 nM | inhibition at 3 min, 10 μM (CYP3A4): 13.5%
